# Patent publication US10016382B2, “Method for decreasing skeletal muscle damage and/or oxidative stress in mammals” (LONZA INC., priority 2014, dated 2018)
# Several values for one entry are separate records, joined by “and”; a condition that tells them apart may be missing. Identical values can stand only once.
# Key:
# Type in all cases: in vivo, dog
# canine myoglobin = assay: Serum canine myoglobin ELISA (muscle damage biomarker), Example 1; settings: for Change in Myoglobin, post-run minus pre-run: following 15 mile long run at 13 wk, mean ± SEM
# Description: (§1) Blood Analysis: Serum samples were taken at three different times from each dog during the 90 day period. The blood samples were collected as follows: 1.) just prior to scanning each dog for body composition at the beginning of the study, 2.) prior to the long run on the 13th week, and 3.) following the long run on the 13th week. The serum samples were analyzed for Phosphocreatine Kinase and Canine Myoglobin to determine the amount of muscle protein leakage that occurred following the long run and TBARS and Total Antioxidant Capacity (TAC) were determined to evaluate the antioxidant status of each of the test dogs during the exercise program. The final blood sample was taken 24 hr after the long run to obtain maximum protein leakage based on previous similar types of exercise research with human athletes. Biomarkers and Assay Methods: Blood was drawn from each dog using a serum separator tube at three different times during the 90 day period: 1.) just prior to scanning each dog for body composition at the beginning of the study, 2.) prior to the long run on the 13th week, and 3.) following the long run on the 13th week. The final blood sample was taken 24 hr after the long run to obtain maximum protein leakage based on previous similar types of exercise research with human athletes. Each time after the blood was drawn it was allowed to clot before being centrifuged for 15 min at 2000 g at 4° C. Serum was aliquoted into 1.5 mL microcentrifuge tubes and stored at −80° C. until assays were ran following the end of the study. Creatine kinase (CK) and canine myoglobin were measured to determine the amount of muscle protein leakage that occurred following the long run. Thiobarbituric acid reactive substances (TBARS) and total antioxidant capacity (TAC) were measured to evaluate the antioxidant status of each of the test dogs during the exercise program. Serum samples were analyzed for total antioxidant capacity (TAC) and thiobarbituric acid reactive substances (TBARS) using commercially available colorimetric kits supplied by Cayman Chemical Company (Ann Arbor, Mich.) per manufacturer instructions. Serum canine myoglobin levels were determined using a commercially available ELISA supplied by Innovate Research (Novi, Mich.) per manufacturer instructions. Creatine kinase activity was determined colorimetrically using a commercially available kit supplied by BioVision (San Francisco, Calif.).
# [1] = system: Thiobarbituric acid reactive substances (TBARS); assay: Serum TBARS (oxidative stress), Example 1; settings: for TBARS, serum, Mean / Change in TBARS, post-run minus pre-run: Ex.1, 250 mg/d; for Change in TBARS, post-run minus pre-run: following 15 mile long run at 13 wk, mean ± SEM
# Description: as §1
# [2] = Body composition by DEXA scan, Example 2 part one; settings: for Lean mass (LM) change / Total tissue mass change: over 14 week study
# From the text: Each dog was also scanned for body composition as described in Example 1 just prior to the beginning of the study and twenty-four hours following the final endurance run.
# [3] = Ex.2 part one, 250 mg/d, both sexes
# [4] = Ex.2 part one, 250 mg/d, females
compound,measurement,setting,value
C[N+](C)(C)C[C@H](O)CC(=O)[O-] [L-carnitine],Myoglobin Least Sq Mean,canine myoglobin; Baseline,10.1 ng/mL
same,Myoglobin Least Sq Mean,"canine myoglobin; Baseline, F",14.77 ng/mL
same,Myoglobin Least Sq Mean,"canine myoglobin; Baseline, M",5.43 ng/mL
same,"Myoglobin, serum, Mean","canine myoglobin; Ex.1, 250 mg/d, Baseline, both sexes",10.0 ng/mL
same,"Myoglobin, serum, Mean","canine myoglobin; Ex.1, 250 mg/d, Baseline, females",17.6 ng/mL
same,"Myoglobin, serum, Mean","canine myoglobin; Ex.1, 250 mg/d, Baseline, males",5.8 ng/mL
same,"Myoglobin, serum, Mean","canine myoglobin; Ex.1, 250 mg/d, Post-run, both sexes",19.2 ng/mL
same,"Myoglobin, serum, Mean","canine myoglobin; Ex.1, 250 mg/d, Post-run, females",24.5 ng/mL
same,"Myoglobin, serum, Mean","canine myoglobin; Ex.1, 250 mg/d, Post-run, males",14.9 ng/mL
same,"Myoglobin, serum, Mean","canine myoglobin; Ex.1, 250 mg/d, Pre-run, both sexes",9.0 ng/mL
same,"Myoglobin, serum, Mean","canine myoglobin; Ex.1, 250 mg/d, Pre-run, females",8.4 ng/mL
same,"Myoglobin, serum, Mean","canine myoglobin; Ex.1, 250 mg/d, Pre-run, males",9.3 ng/mL
same,"Change in Myoglobin, post-run minus pre-run","canine myoglobin; Ex.1, 250 mg/d, females",6.11 ± 3.51 n = 6 ng/mL
same,"Change in Myoglobin, post-run minus pre-run","canine myoglobin; Ex.1, 250 mg/d, males",7.04 ± 3.9 n = 10 ng/mL
same,Serum myoglobin values after exercise,"canine myoglobin; Ex.1, 250 mg/d, post-run, summary text value, control 30.97",19.67 ng/mL
same,Myoglobin Least Sq Mean,canine myoglobin; Post-run,19.67 ng/mL
same,Myoglobin Least Sq Mean,"canine myoglobin; Post-run, F",24.46 ng/mL
same,Myoglobin Least Sq Mean,"canine myoglobin; Post-run, M",14.88 ng/mL
same,Myoglobin Least Sq Mean,canine myoglobin; Pre-run,10.01 ng/mL
same,Myoglobin Least Sq Mean,"canine myoglobin; Pre-run, F",11.06 ng/mL
same,Myoglobin Least Sq Mean,"canine myoglobin; Pre-run, M",8.96 ng/mL
same,Myoglobin Least Sq Mean,"canine myoglobin; Treatment * Sex, F",14.77 ng/mL
same,Myoglobin Least Sq Mean,"canine myoglobin; Treatment * Sex, M",5.43 ng/mL
same,Myoglobin Least Sq Mean,"canine myoglobin; Treatment level, all dogs",10.1 ng/mL
same,"Myoglobin, mixed model Estimate, term Time[Post-run-Pre-run] * Treatment[L-carnitine]","canine myoglobin; serum, model term",−7.625
same,"Myoglobin, mixed model Estimate, term Time[Post-run-Pre-run] * Treatment[L-carnitine] * Sex[F]","canine myoglobin; serum, model term",−3.63
same,"Myoglobin, mixed model Estimate, term Time[Pre-run-Baseline] * Treatment[L-carnitine]","canine myoglobin; serum, model term",0.3222
same,"Myoglobin, mixed model Estimate, term Time[Pre-run-Baseline] * Treatment[L-carnitine] * Sex[F]","canine myoglobin; serum, model term",−0.369
same,"Myoglobin, mixed model Estimate, term Treatment[L-carnitine]","canine myoglobin; serum, model term",1.653
same,"Myoglobin, mixed model Estimate, term Treatment[L-carnitine] * Sex[F]","canine myoglobin; serum, model term",1.582
same,TBARS Least Sq Mean,[1]; Baseline,12.53 μM MDA
same,TBARS Least Sq Mean,"[1]; Baseline, F",14.1 μM MDA
same,TBARS Least Sq Mean,"[1]; Baseline, M",10.96 μM MDA
same,"TBARS, serum, Mean","[1]; Baseline, both sexes",12.37 uM MDA
same,"TBARS, serum, Mean","[1]; Baseline, females",14.10 uM MDA
same,"TBARS, serum, Mean","[1]; Baseline, males",10.96 uM MDA
same,"TBARS, serum, Mean","[1]; Post-run, both sexes",12.59 uM MDA
same,"TBARS, serum, Mean","[1]; Post-run, females",14.47 uM MDA
same,"TBARS, serum, Mean","[1]; Post-run, males",11.06 uM MDA
same,"TBARS, serum, Mean","[1]; Pre-run, both sexes",12.18 uM MDA
same,"TBARS, serum, Mean","[1]; Pre-run, females",15.13 uM MDA
same,"TBARS, serum, Mean","[1]; Pre-run, males",9.77 uM MDA
same,"Change in TBARS, post-run minus pre-run",[1]; both sexes,0.41 μM MDA and 0.41 ± 0.71 n = 20 μM MDA
same,"Change in TBARS, post-run minus pre-run",[1]; females,−0.7 ± 1.1 n = 9 μM MDA
same,"Change in TBARS, post-run minus pre-run",[1]; males,1.3 ± 0.9 n = 11 μM MDA
same,TBARS Least Sq Mean,[1]; Post-run,12.76 μM MDA
same,TBARS Least Sq Mean,"[1]; Post-run, F",14.47 μM MDA
same,TBARS Least Sq Mean,"[1]; Post-run, M",11.06 μM MDA
same,TBARS Least Sq Mean,[1]; Pre-run,12.45 μM MDA
same,TBARS Least Sq Mean,"[1]; Pre-run, F",15.13 μM MDA
same,TBARS Least Sq Mean,"[1]; Pre-run, M",9.77 μM MDA
same,TBARS Least Sq Mean,"[1]; Treatment * Sex, F",14.1 μM MDA
same,TBARS Least Sq Mean,"[1]; Treatment * Sex, M",10.96 μM MDA
same,TBARS Least Sq Mean,"[1]; Treatment level, all dogs",12.53 μM MDA
same,"TBARS, mixed model Estimate, term Time[Post-run-Pre-run] * Treatment[L-carnitine]","[1]; serum, model term",−0.943
same,"TBARS, mixed model Estimate, term Time[Post-run-Pre-run] * Treatment[L-carnitine] * Sex[F]","[1]; serum, model term",−0.763
same,"TBARS, mixed model Estimate, term Time[Pre-run-Baseline] * Treatment[L-carnitine]","[1]; serum, model term",0.8244
same,"TBARS, mixed model Estimate, term Time[Pre-run-Baseline] * Treatment[L-carnitine] * Sex[F]","[1]; serum, model term",0.2021
same,"TBARS, mixed model Estimate, term Treatment[L-carnitine]","[1]; serum, model term",−0.5222
same,"TBARS, mixed model Estimate, term Treatment[L-carnitine] * Sex[F]","[1]; serum, model term",0.4031
same,Increase in % fat mass,"[2]; Ex.2 part one, 250 mg/d, females, vs 3.01% control females (p=0.3893)",1.58%
same,Lean mass (LM) change,[2]; [3],0.68 kg
same,Total tissue mass change,[2]; [3],0.74 kg
same,Lean mass (LM) change,[2]; [4],0.45 kg
same,Total tissue mass change,[2]; [4],0.78 kg
same,Lean mass (LM) change,"[2]; Ex.2 part one, 250 mg/d, males",0.91 kg
same,Total tissue mass change,"[2]; Ex.2 part one, 250 mg/d, males",0.70 kg
same,% Fat,"[2]; Female, Change",1.58 ± 1.29%
same,BMC,"[2]; Female, Change",9.54 ± 6.72 g
same,BMD,"[2]; Female, Change",0.0029 ± 0.005 g/cm2
same,Fat,"[2]; Female, Change",0.56 ± 0.35 kg
same,Lean Mass,"[2]; Female, Change",0.45 ± 0.21 kg
same,Total Tissue,"[2]; Female, Change",0.78 ± 0.27 kg
same,% Fat,"[2]; Female, Final",18.43 ± 1.75%
same,BMC,"[2]; Female, Final",716.5 ± 30.63 g
same,BMD,"[2]; Female, Final",0.58 ± 0.01 g/cm2
same,Fat,"[2]; Female, Final",4.62 ± 0.57 kg
same,Lean Mass,"[2]; Female, Final",19.95 ± 0.65 kg
same,Total Tissue,"[2]; Female, Final",24.34 ± 0.94 kg
same,% Fat,"[2]; Female, Initial",16.85 ± 2.1%
same,BMC,"[2]; Female, Initial",706.96 ± 30.19 g
same,BMD,"[2]; Female, Initial",0.58 ± 0.01 g/cm2
same,Fat,"[2]; Female, Initial",4.07 ± 0.59 kg
same,Lean Mass,"[2]; Female, Initial",19.49 ± 0.69 kg
same,Total Tissue,"[2]; Female, Initial",23.56 ± 0.86 kg
same,% Fat,"[2]; Male, Change",0.49 ± 0.61%
same,BMC,"[2]; Male, Change",6.54 ± 6.57 g
same,BMD,"[2]; Male, Change",0.011 ± 0.005 g/cm2
same,Fat,"[2]; Male, Change",0.22 ± 0.2 kg
same,Lean Mass,"[2]; Male, Change",0.91 ± 0.22 kg
same,Total Tissue,"[2]; Male, Change",0.7 ± 0.19 kg
same,% Fat,"[2]; Male, Final",14.81 ± 1.05%
same,BMC,"[2]; Male, Final",927.39 ± 25.32 g
same,BMD,"[2]; Male, Final",0.65 ± 0.01 g/cm2
same,Fat,"[2]; Male, Final",4.56 ± 0.36 kg
same,Lean Mass,"[2]; Male, Final",26.54 ± 0.71 kg
same,Total Tissue,"[2]; Male, Final",30.67 ± 0.72 kg
same,% Fat,"[2]; Male, Initial",14.31 ± 1.16%
same,BMC,"[2]; Male, Initial",920.86 ± 25.96 g
same,BMD,"[2]; Male, Initial",0.64 ± 0.01 g/cm2
same,Fat,"[2]; Male, Initial",4.34 ± 0.42 kg
same,Lean Mass,"[2]; Male, Initial",25.63 ± 0.58 kg
same,Total Tissue,"[2]; Male, Initial",29.97 ± 0.75 kg
same,% Fat,"[2]; all dogs, Change",1.04 ± 0.71%
same,BMC,"[2]; all dogs, Change",8.04 ± 4.62 g
same,BMD,"[2]; all dogs, Change",0.007 ± 0.003 g/cm2
same,Fat,"[2]; all dogs, Change",0.39 ± 0.2 kg
same,Lean Mass,"[2]; all dogs, Change",0.68 ± 0.16 kg
same,Total Tissue,"[2]; all dogs, Change",0.74 ± 0.16 kg
same,% Fat,"[2]; all dogs, Final",16.62 ± 1.06%
same,BMC,"[2]; all dogs, Final",821.95 ± 28.14 g
same,BMD,"[2]; all dogs, Final",0.61 ± 0.01 g/cm2
same,Fat,"[2]; all dogs, Final",4.59 ± 0.33 kg
same,Lean Mass,"[2]; all dogs, Final",23.24 ± 0.79 kg
same,Total Tissue,"[2]; all dogs, Final",27.5 ± 0.84 kg
same,% Fat,"[2]; all dogs, Initial",15.58 ± 1.2%
same,BMC,"[2]; all dogs, Initial",813.91 ± 28.38 g
same,BMD,"[2]; all dogs, Initial",0.608 ± 0.01 g/cm2
same,Fat,"[2]; all dogs, Initial",4.2 ± 0.35 kg
same,Lean Mass,"[2]; all dogs, Initial",22.56 ± 0.74 kg
same,Total Tissue,"[2]; all dogs, Initial",26.76 ± 0.83 kg
